Consider 13 molecules from patent US4965264A, “Thienocinnoline compounds and their pharmaceutical use” (Yoshitomi Pharmaceutical Industries, Ltd., priority 1987, dated 1990).

As a reminder, the Ki is the dissociation constant of the complex between target and ligand, obtained from inhibition or displacement.

For one test, the system named is leukocytes. In words: Action on leukocyte-phagocytosis. In kind it is cell-based, mouse (ICR). The conditions noted are these: Mus musculus, 20 min, 37° C., read-out: potentiating action on leukocyte phagocytosis, ratio of phagocytic leukocytes relative to controls. Here is the method:
The experiment was performed in accordance with the method by Stossel et al. [Journal of Clinical Investigation, vol. 51, 615 (1972)].
(§1) ICR mice weighing 30-35 g were intraperitoneally administered with glycogen. Three hours later, the leukocytes in the abdominal cavity were collected. A leukocyte suspension of 5×10^6 cells/ml was prepared and the test compound was added to 200 μl of the cell suspension, followed by further addition of 100 μl of mouse serum and 100 μl of dead yeast (1×10^8 particles/ml) thereto. The mixture was incubated at 37° C. for 20 minutes. By observing more than 200 leukocytes in the reaction mixture under a microscope (400 magnifications), the number of the leukocytes which had phagocytosed at least one dead yeast was counted. The ratio of the number of phagocytic leukocytes treated with 0.1 μM of the test compounds relative to that of phagocytic leukocytes of controls was estimated. The potentiating actions on phagocytosis of the compounds of Examples 1 and 9 were 160% and 158% respectively.

The test system of the next test is peritoneal macrophages. Nature of the test: Action on macrophage-phagocytosis. The format is cell-based. The conditions noted are these: Rattus norvegicus, read-out: potentiating action on macrophage phagocytosis, relative ratio of phagocytic macrophages. Here is the method: as §1
Casein sodium was intraperitoneally administered to rats. Three to four days later, peritoneal macrophages were collected. The phagocytosis was examined, and the relative ratio of phagocytic macrophages of the rat treated with 0.1 μM of the test compound was calculated in the same manner as Experimental Example 4. The potentiating actions on phagocytosis of the compounds of Examples 2, 8 and 10 were 146%, 167% and 148% respectively.

In another test the test system is E. coli 0-111 strain. Nature of the test: Infection-protective action (E. coli infection in cyclophosphamide-treated mice). In kind it is in vivo, mouse (male ICR). The conditions noted are these: 3 mg/kg orally for 3 days; 7 days after E. coli inoculation; cyclophosphamide 200 mg/kg i.p. Here is the method: Cyclophosphamide was intraperitoneally administered to male ICR mice (weighing 23-27 g, aged 5 weeks) at the dosage of 200 mg/kg. Four days later, […] of E. coli 0-111 strain was subcutaneously inoculated into the mice (Controls). The test compounds (3 mg/kg) were orally administered to the mice for 3 days from the following day of the administration of cyclophosphamide. The survival rate of the treated mice relative to controls 7 days after the inoculation of E. coli was compared.

Test [1] relates to amnesia induced by electroconvulsive shock. Nature of the test: Action on experimental amnesia (electroconvulsive shock, step-through passive avoidance). The format is in vivo, mouse (male ddY). The conditions noted are these: Mus musculus, ip; i.p. immediately after ECS; latency 3 h after acquisition trial; read-out: Anti-amnesia Action, MED. As to the method:
The experiment was carried out in accordance with the method described by Sara in Psychopharmacologia, vol. 36, 59 (1974). Male ddY mice weighing 23-26 g, 20 animals per group, were used, and a step-through passive avoidance reflex practicing box consisting of illuminated chamber and dark chamber was used as the experimental apparatus. As the acquisition trial of passive avoidance reflex, the animals were placed in the illuminated chamber and then allowed to enter the dark one. As soon as the animals entered the dark chamber, footshock was applied to the mouse. Experimental amnesia was caused by applying electroconvulsive shock [ECS]soon after the acquisition trial. As the experimental trial, the animals were placed in the illuminated chamber three hours after the acquisition trial, and the time which the animals took to enter the dark chamber (latency) was measured until 600 seconds. The test compounds were administered intraperitoneally (i.p.) immediately after the application of ECS. For the evaluation of the effects, antagonistic actions against the reduction in latency, caused by the application of ESC were examined.

In a further test the target is benzodiazepine receptors. Nature of the test: Displacement of tritiated diazepam, benzodiazepine receptor binding (synaptosome fraction of cerebral cortex). Further details: species or system rat (male Wistar). The note with it: displacement of 2 nM tritiated diazepam, rat cortex synaptosomes, pH 7.4, 0°C, 20 min; read-out: Affinity to BZP Receptors, Ki. As to the method: The experiment for specific affinity to benzodiazepine receptors was carried out in accordance with the method described in Life Science, vol. 20, 2101 (1977).
The crude cyhaptosome fraction was isolated from the cerebral cortex of male Wistar rats aged 9-10 weeks, and was suspended in 50 mM Tris-hydrochloric acid buffer solution (pH 7.4) containing 120 mM sodium chloride and 5 mM potassium chloride. These suspensions were used for the experiment.
The test compounds in several different concentrations and tritiated diazepam (in final concentration of 2 nM) were added to the synaptosome suspensions, and the mixtures were incubated at 0° C. for 20 minutes. These suspensions were filtered with Whatman GF/B glassfiber filters. After the filters were washed with the above-mentioned buffer solution, the radioactivity left on the filters was measured with the use of a liquid scintillation counter.
Specific binding was determined by subtracting binding in the presence of 10^-6 M unlabeled diazepam from total binding.
According to the foregoing experimental method, the binding force to benzodiazepine receptors of the compound of the present invention is evaluated from its displacement ability for tritiated diazepam at its binding site, which is represented by Ki value (nM).

In the case of `O=C1CC2CCc3sccc3C2=NN1c1ccccc1` (stereo not drawn) [Example 1, 8-phenyl-4,5,5a,6,7,8-hexahydrothieno[2,3h]cinnolin-7-one], the activity at 0.1 µM in the test with leukocytes came out at 160%.

With `O=C1CC2CCc3sccc3C2=NN1c1ccc(Cl)cc1` (stereo not drawn) [Example 2, 8-(4-chlorophenyl)4,5,5a,6,7,8-hexahydrothieno[2,3-h]cinnolin-7-one], in the test on peritoneal macrophages, the activity at 0.1 µM worked out at 146%. Also, in the test on E. coli 0-111 strain, the “effect on survival rate relative to controls” value is “significant increasing effects on survival rate”.

`O=C1CC2CCc3sccc3C2=NN1c1ccccn1` (stereo not drawn) [Example 3, 8-(2-pyridyl)4,5,5a,6,7,8-hexahydrothieno[2,3-h]cinnolin-7-one]: in test [1], the minimal effective dose came out at 0.1 mg/kg. The Ki at benzodiazepine receptors is 0.28 µM.

On to `O=C1CC2CCc3sc(Br)cc3C2=NN1c1ccccc1` (stereo not drawn) [Example 4, 2-bromo-8-phenyl-4,5,5a,6,7,8-hexahydrothieno[2,3-h]-cinnolin-7-one], for which the minimal effective dose in test [1] turned out to be 0.5 mg/kg. At benzodiazepine receptors, the Ki worked out at 0.03 µM.

For the molecule `Cc1cc2c(s1)CCC1CC(=O)N(c3ccccc3)N=C21` (stereo not drawn) [Example 5, 2-methyl-8-phenyl-4,5,5a,6,7,8-hexahydrothieno[2,3-h]cinnolin-7-one], the minimal effective dose in test [1] turned out to be 0.25 mg/kg. On benzodiazepine receptors, the Ki came to 0.018 µM. Turning to `O=C1CC2CCc3sc(Br)cc3C2=NN1c1ccc(Cl)cc1` (stereo not drawn) [Example 6, 2-bromo-8-(4-chlorophenyl)-4,5,5a,6,7,8-hexahydrothieno[2,3-h]cinnolin-7-one], at benzodiazepine receptors, the Ki came out at 0.012 µM.

`O=C1CC2CCc3sc(Br)cc3C2=NN1c1ccccn1` (stereo not drawn) [Example 7, 2-bromo-8-(2-pyridyl)-4,5,5a,6,7,8-hexahydrothieno[2,3-h]cinnolin-7-one]: in test [1], the minimal effective dose was below 0.5 mg/kg. The Ki on benzodiazepine receptors came out at 0.06 µM. Take `Cc1ccc(N2N=C3c4ccsc4CCC3CC2=O)cc1` (stereo not drawn) [Example 8, 8-(4-methylphenyl)-4,5,5a,6,7,8-hexahydrothieno[2,3-h]cinnolin-7-one]: the activity at 0.1 µM in the test with peritoneal macrophages is 167%. The “effect on survival rate relative to controls” value with E. coli 0-111 strain is recorded as “significant increasing effects on survival rate”. As for `COc1ccc(N2N=C3c4ccsc4CCC3CC2=O)cc1` (stereo not drawn) [Example 9, 8-(4-methoxyphenyl)4,5,5a,6,7,8-hexahydrothieno[2,3-h]cinnolin-7-one], the activity at 0.1 µM in the test with leukocytes was 158%. Besides, the minimal effective dose in test [1] was found to be 0.5 mg/kg. At benzodiazepine receptors, the Ki was 0.012 µM.

In the case of `Cc1ccc(N2N=C3c4cc(Br)sc4CCC3CC2=O)cc1` (stereo not drawn) [Example 10, 2-bromo-8-(4-methylphenyl)-4,5,5a,6,7,8-hexahydrothieno[2,3-h]cinnolin-7-one], the activity at 0.1 µM in the test on peritoneal macrophages stood at 148%. Also, on benzodiazepine receptors, the Ki came out at 0.007 µM.

Turning to `COc1ccc(N2N=C3c4cc(Br)sc4CCC3CC2=O)cc1` (stereo not drawn) [Example 11, 2-bromo-8-(4-methoxyphenyl)-4,5,5a,6,7,8-hehahydrothieno[2,3-h]cinnolin-7-one], the “effect on survival rate relative to controls” value with E. coli 0-111 strain is listed as “significant increasing effects on survival rate”. The Ki at benzodiazepine receptors came out at 0.0045 µM. As for `COc1ccc(N2N=C3c4cc(C)sc4CCC3CC2=O)cc1` (stereo not drawn) [Example 14, 2-Methyl-8-(4-methoxyphenyl)-4,5,5a,6,7,8-hexahydrothieno[2,3-h]cinnolin-7-one], in test [1], the minimal effective dose worked out at 0.25 mg/kg. Besides, the Ki on benzodiazepine receptors was 0.0051 µM. As for `Cc1ccc(N2N=C3c4cc(C)sc4CCC3CC2=O)cc1` (stereo not drawn) [Example 24, 2-Methyl-8-(4-methylphenyl)-4,5,5a,6,7,8-hexahydrothieno[2,3-h]cinnolin-7-one], the Ki on benzodiazepine receptors was 0.01 µM.
